Measurements from US8809331B2 (Genentech, Inc., priority 2011, dated 2014).

Target: T1, LRRK2 (Homo sapiens, UniProt Q5S007, G2019S)
T1 construct: purchased Invitrogen PV4882
Assay: In Vitro LRRK2 LabChip Assay (LRRK2 Ki)
Format: biochemical
Conditions: Table 5 compounds (formula I)

T1 sequence (Q5S007 whole entry G2019S): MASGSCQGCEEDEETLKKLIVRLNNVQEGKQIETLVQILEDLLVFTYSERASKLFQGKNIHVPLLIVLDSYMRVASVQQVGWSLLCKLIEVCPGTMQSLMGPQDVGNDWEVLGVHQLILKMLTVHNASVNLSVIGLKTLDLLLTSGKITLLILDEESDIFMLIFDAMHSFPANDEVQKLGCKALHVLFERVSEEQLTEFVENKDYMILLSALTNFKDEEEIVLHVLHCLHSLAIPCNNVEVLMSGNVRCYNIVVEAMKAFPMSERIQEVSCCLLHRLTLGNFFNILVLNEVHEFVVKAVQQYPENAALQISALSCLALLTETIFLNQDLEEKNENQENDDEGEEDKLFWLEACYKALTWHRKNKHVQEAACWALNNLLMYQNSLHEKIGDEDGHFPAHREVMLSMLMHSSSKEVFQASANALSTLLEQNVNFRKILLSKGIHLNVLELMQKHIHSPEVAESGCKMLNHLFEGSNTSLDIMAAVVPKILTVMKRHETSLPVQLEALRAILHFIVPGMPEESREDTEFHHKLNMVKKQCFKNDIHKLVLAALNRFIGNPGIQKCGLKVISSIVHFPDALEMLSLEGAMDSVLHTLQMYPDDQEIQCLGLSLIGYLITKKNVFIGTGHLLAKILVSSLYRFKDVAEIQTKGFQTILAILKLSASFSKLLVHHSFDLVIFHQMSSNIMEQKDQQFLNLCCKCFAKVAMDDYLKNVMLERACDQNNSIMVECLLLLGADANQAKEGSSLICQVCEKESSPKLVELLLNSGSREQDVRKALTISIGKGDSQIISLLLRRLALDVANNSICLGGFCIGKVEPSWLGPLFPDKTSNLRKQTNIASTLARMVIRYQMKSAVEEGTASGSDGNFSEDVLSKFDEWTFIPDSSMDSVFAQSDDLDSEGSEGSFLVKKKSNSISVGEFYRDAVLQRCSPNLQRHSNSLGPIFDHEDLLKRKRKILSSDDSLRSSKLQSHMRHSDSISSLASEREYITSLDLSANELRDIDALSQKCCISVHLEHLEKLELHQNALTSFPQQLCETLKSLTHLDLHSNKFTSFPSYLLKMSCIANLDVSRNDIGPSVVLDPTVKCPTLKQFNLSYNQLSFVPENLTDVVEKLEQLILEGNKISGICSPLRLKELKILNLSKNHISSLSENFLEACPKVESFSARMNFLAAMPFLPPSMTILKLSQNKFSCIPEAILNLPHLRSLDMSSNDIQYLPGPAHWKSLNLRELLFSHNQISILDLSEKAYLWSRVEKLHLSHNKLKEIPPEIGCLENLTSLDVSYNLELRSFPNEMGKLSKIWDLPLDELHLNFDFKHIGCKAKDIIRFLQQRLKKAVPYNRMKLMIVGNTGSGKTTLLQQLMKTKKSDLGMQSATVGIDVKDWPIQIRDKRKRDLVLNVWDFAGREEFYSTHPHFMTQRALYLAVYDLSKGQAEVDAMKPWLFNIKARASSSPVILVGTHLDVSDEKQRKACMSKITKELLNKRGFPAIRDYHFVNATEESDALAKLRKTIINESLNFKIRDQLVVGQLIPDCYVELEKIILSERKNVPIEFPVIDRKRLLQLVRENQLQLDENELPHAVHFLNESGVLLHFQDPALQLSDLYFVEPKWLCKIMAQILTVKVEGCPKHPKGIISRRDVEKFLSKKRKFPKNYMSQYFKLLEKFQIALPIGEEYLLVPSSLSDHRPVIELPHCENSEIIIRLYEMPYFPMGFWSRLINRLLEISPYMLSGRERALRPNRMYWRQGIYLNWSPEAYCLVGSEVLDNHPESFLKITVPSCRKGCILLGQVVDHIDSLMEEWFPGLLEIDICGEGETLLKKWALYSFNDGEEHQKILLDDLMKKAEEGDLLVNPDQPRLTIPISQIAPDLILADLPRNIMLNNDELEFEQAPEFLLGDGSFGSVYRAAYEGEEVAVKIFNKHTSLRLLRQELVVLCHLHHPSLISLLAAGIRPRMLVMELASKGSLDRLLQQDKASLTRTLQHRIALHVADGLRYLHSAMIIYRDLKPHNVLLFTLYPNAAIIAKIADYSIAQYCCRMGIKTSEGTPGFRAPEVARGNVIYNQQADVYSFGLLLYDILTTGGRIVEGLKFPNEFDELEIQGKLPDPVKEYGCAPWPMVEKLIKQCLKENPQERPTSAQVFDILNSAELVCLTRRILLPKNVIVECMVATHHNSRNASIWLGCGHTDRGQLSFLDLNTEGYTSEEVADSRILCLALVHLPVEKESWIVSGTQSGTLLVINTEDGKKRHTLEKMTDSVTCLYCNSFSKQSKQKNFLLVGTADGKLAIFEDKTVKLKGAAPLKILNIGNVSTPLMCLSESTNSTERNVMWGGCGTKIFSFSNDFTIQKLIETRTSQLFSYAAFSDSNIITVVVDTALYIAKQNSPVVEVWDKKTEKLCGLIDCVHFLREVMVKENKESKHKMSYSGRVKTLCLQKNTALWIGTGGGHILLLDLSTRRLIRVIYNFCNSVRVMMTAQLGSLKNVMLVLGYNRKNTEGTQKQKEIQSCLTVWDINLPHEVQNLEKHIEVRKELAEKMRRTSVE

Q: `CCOc1cc(C(=O)N2CCOCC2)c(C)cc1Nc1ncc(C(F)(F)F)c(NC)n1` [Compound 100, [5-Ethoxy-2-methyl-4-(4-methylamino-5-trifluoromethyl-pyrimidin-2-ylamino)-phenyl]-morpholin-4-yl-methanone] was tested. Which Ki did it give?
A: Its Ki is 1.05 nM.

Q: `CNc1nc(Nc2cc(C)c(C(=O)N3CCCC3)cc2OCF)ncc1C(F)(F)F` [Compound 101, [5-Fluoromethoxy-2-methyl-4-(4-methylamino-5-trifluoromethyl-pyrimidin-2-ylamino)-phenyl]-pyrrolidin-1-yl-methanone] was tested. Which Ki did it give?
A: The Ki was 0.685 nM.

Q: `O=C(c1cc(Cl)c(Nc2ncc(C(F)(F)F)c(NC3CC3)n2)cc1OCF)N1CCOCC1` [Compound 102, [5-Chloro-4-(4-cyclopropylamino-5-trifluoromethyl-pyrimidin-2-ylamino)-2-fluoromethoxy-phenyl]-morpholin-4-yl-methanone] was tested. Which Ki did it give?
A: The Ki was 708 nM.

Q: How did the Ki turn out when `CCNc1nc(Nc2cc(C)c(C(=O)N3CCOCC3)cc2F)ncc1C(F)(F)F` [Compound 103, [4-(4-Ethylamino-5-trifluoromethyl-pyrimidin-2-ylamino)-5-fluoro-2-methyl-phenyl]-morpholin-4-yl-methanone] was run?
A: Its Ki is 1.23 nM.

Q: For `[2H]C1([2H])OC([2H])([2H])C([2H])([2H])N(C(=O)c2cc(OC)c(Nc3ncc(C(F)(F)F)c(NC)n3)cc2C)C1([2H])[2H]` [Compound 104, (5-methoxy-2-methyl-4-(4-(methylamino)-5-(trifluoromethyl)pyrimidin-2-ylamino)phenyl)(perdeuteromorpholino)methanone], which Ki is on record?
A: Its Ki is 0.342 nM.

Q: `CCNc1nc(Nc2cc(C)c(C(=O)NCC(C)(C)O)cc2OC)ncc1C(F)(F)F` [Compound 105, 4-(4-Ethylamino-5-trifluoromethyl-pyrimidin-2-ylamino)-N-(2-hydroxy-2-methyl-propyl)-5-methoxy-2-methyl-benzamide] was tested. Which Ki did it give?
A: Its Ki is 0.31 nM.

Q: Which Ki does the source give for `CCNc1nc(Nc2cc(F)c(C(=O)NC(C)(C)CO)cc2OC)ncc1C(F)(F)F` [Compound 106, 4-(4-Ethylamino-5-trifluoromethyl-pyrimidin-2-ylamino)-2-fluoro-N-(2-hydroxy-1,1-dimethyl-ethyl)-5-methoxy-benzamide] here?
A: The Ki was 0.406 nM.

Q: How did the Ki turn out when `CCNc1nc(Nc2cc(C)c(C(=O)N3CC[C@H](F)C3)cc2Cl)ncc1C#N` [Compound 107, 2-[2-Chloro-4-((S)-3-fluoro-pyrrolidine-1-carbonyl)-5-methyl-phenylamino]-4-ethylamino-pyrimidine-5-carbonitrile] was run?
A: Its Ki is 9.12 nM.

Q: For `CCNc1nc(Nc2ccc(C(=O)N3CC[C@H](F)C3)cc2Cl)ncc1C#N` [Compound 108, 2-[2-Chloro-4-((S)-3-fluoro-pyrrolidine-1-carbonyl)-phenylamino]-4-ethylamino-pyrimidine-5-carbonitrile], which Ki is on record?
A: Its Ki is 28.9 nM.

Q: `CNc1nc(Nc2cc(C)c(C(=O)N3CCOCC3)cc2OCC2CC2)ncc1C(F)(F)F` [Compound 109, [5-Cyclopropylmethoxy-2-methyl-4-(4-methylamino-5-trifluoromethyl-pyrimidin-2-ylamino)-phenyl]-morpholin-4-yl-methanone] was tested. Which Ki did it give?
A: The Ki was 1.38 nM.

Q: With `CNc1nc(Nc2cc(OC)c(C(=O)N3CCCCC3)cc2OCF)ncc1C(F)(F)F` [Compound 110, [5-Fluoromethoxy-2-methoxy-4-(4-methylamino-5-trifluoromethyl-pyrimidin-2-ylamino)-phenyl]-piperidin-1-yl-methanone] as the compound, how does the Ki read?
A: The Ki was 1.64 nM.

Q: How did the Ki turn out when `CCNc1nc(Nc2cc(OCF)c(C(=O)N3CCCC3)cc2Cl)ncc1C(F)(F)F` [Compound 111, [5-Chloro-4-(4-ethylamino-5-trifluoromethyl-pyrimidin-2-ylamino)-2-fluoromethoxy-phenyl]-pyrrolidin-1-yl-methanone] was run?
A: The Ki was 1.68 nM.

Q: Which Ki does the source give for `COc1cc(Nc2ncc(C(F)(F)F)c(NC3CCC3)n2)c(F)cc1C(=O)N1CCOCC1` [Compound 112, [4-(4-Cyclobutylamino-5-trifluoromethyl-pyrimidin-2-ylamino)-5-fluoro-2-methoxy-phenyl]-morpholin-4-yl-methanone] here?
A: Its Ki is 0.353 nM.

Q: With `COc1cc(Nc2ncc(C(F)(F)F)c(NC3CCC3)n2)c(Cl)cc1C(=O)N1CCOCC1` [Compound 113, [5-Chloro-4-(4-cyclobutylamino-5-trifluoromethyl-pyrimidin-2-ylamino)-2-methoxy-phenyl]-morpholin-4-yl-methanone] as the compound, how does the Ki read?
A: Its Ki is 0.326 nM.

Q: Which Ki does the source give for `CCNc1nc(Nc2cc(F)c(C(=O)NC3(CO)CC3)cc2OC)ncc1C(F)(F)F` [Compound 114, 4-(4-Ethylamino-5-trifluoromethyl-pyrimidin-2-ylamino)-2-fluoro-N-(1-hydroxymethyl-cyclopropyl)-5-methoxy-benzamide] here?
A: The Ki was 0.559 nM.

Q: How did the Ki turn out when `CCNc1nc(Nc2cc(F)c(C(=O)NCC3(O)CC3)cc2OC)ncc1C(F)(F)F` [Compound 115, 4-(4-Ethylamino-5-trifluoromethyl-pyrimidin-2-ylamino)-2-fluoro-N-(1-hydroxy-cyclopropylmethyl)-5-methoxy-benzamide] was run?
A: The Ki was 0.31 nM.

Q: How did the Ki turn out when `CNc1nc(Nc2cc(C)c(C(=O)NCC(C)(C)O)cc2OC)ncc1C(F)(F)F` [Compound 116, N-(2-Hydroxy-2-methyl-propyl)-5-methoxy-2-methyl-4-(4-methylamino-5-trifluoromethyl-pyrimidin-2-ylamino)-benzamide] was run?
A: The Ki was 1.19 nM.

Q: `CCNc1nc(Nc2cc(OC)c(C(=O)N3CC[C@H](F)C3)cc2Cl)ncc1C#N` [Compound 117, 2-[2-Chloro-4-((S)-3-fluoro-pyrrolidine-1-carbonyl)-5-methoxy-phenylamino]-4-ethylamino-pyrimidine-5-carbonitrile] was tested. Which Ki did it give?
A: The Ki was 12.7 nM.

Q: With `CCNc1nc(Nc2cc(F)c(C(=O)N3CCOCC3)cc2C)ncc1C(F)(F)F` [Compound 118, [4-(4-Ethylamino-5-trifluoromethyl-pyrimidin-2-ylamino)-2-fluoro-5-methyl-phenyl]-morpholin-4-yl-methanone] as the compound, how does the Ki read?
A: The Ki was 2.76 nM.

Q: With `COc1nc(Nc2cc(C)c(C(=O)N3CCCC3)cc2OCF)ncc1Cl` [Compound 119, [4-(5-Chloro-4-methoxy-pyrimidin-2-ylamino)-5-fluoromethoxy-2-methyl-phenyl]-pyrrolidin-1-yl-methanone] as the compound, how does the Ki read?
A: The Ki was 11.2 nM.

Q: Which Ki does the source give for `CNc1nc(Nc2cc(OC)c(C(=O)N(C)C)cc2OCF)ncc1C(F)(F)F` [Compound 120, 5-Fluoromethoxy-2-methoxy-N,N-dimethyl-4-(4-methylamino-5-trifluoromethyl-pyrimidin-2-ylamino)-benzamide] here?
A: Its Ki is 4.42 nM.

Q: With `CCNc1nc(Nc2cc(OCF)c(C(=O)N3CCCC3)cc2F)ncc1C(F)(F)F` [Compound 121, [4-(4-Ethylamino-5-trifluoromethyl-pyrimidin-2-ylamino)-5-fluoro-2-fluoromethoxy-phenyl]-pyrrolidin-1-yl-methanone] as the compound, how does the Ki read?
A: The Ki was 3.43 nM.

Q: With `CNc1nc(Nc2cc(OC)c(C(=O)N3CCOCC3)c(OC)c2F)ncc1C(F)(F)F` [Compound 122, [3-Fluoro-2,6-dimethoxy-4-(4-methylamino-5-trifluoromethyl-pyrimidin-2-ylamino)-phenyl]-morpholin-4-yl-methanone] as the compound, how does the Ki read?
A: The Ki was 2.06 nM.

Q: How did the Ki turn out when `[2H]C1([2H])C(Nc2nc(Nc3cc(F)c(C(=O)N4CCOCC4)cc3OC)ncc2C(F)(F)F)C1([2H])[2H]` [Compound 123, (4-(4-(2,3-tetradeutero-cyclopropylamino)-5-(trifluoromethyl)pyrimidin-2-ylamino)-2-fluoro-5-methoxyphenyl)(morpholino)methanone] was run?
A: Its Ki is 0.31 nM.

Q: With `CNc1nc(Nc2cc(OC(F)(F)F)c(C(=O)N3CCOCC3)cc2OC)ncc1C(F)(F)F` [Compound 124, [5-Methoxy-4-(4-methylamino-5-trifluoromethyl-pyrimidin-2-ylamino)-2-trifluoromethoxy-phenyl]-morpholin-4-yl-methanone] as the compound, how does the Ki read?
A: The Ki was 4.3 nM.

Q: How did the Ki turn out when `CCNc1nc(Nc2cc(OC)c(C(=O)N3CCOCC3)cc2OC)ncc1C(F)(F)F` [Compound 125, [4-(4-Ethylamino-5-trifluoromethyl-pyrimidin-2-ylamino)-2,5-dimethoxy-phenyl]-morpholin-4-yl-methanone] was run?
A: Its Ki is 0.577 nM.

Q: How did the Ki turn out when `CNc1nc(Nc2cc(Cl)c(C(=O)N3CCOCC3)cc2C)ncc1C(F)(F)F` [Compound 126, [2-Chloro-5-methyl-4-(4-methylamino-5-trifluoromethyl-pyrimidin-2-ylamino)-phenyl]-morpholin-4-yl-methanone] was run?
A: The Ki was 6.79 nM.

Q: For `COc1cc(C(=O)N2CCOCC2)c(C)cc1Nc1ncc(C(F)(F)F)c(NC2CCC2)n1` [Compound 129, [4-(4-Cyclobutylamino-5-trifluoromethyl-pyrimidin-2-ylamino)-5-methoxy-2-methyl-phenyl]-morpholin-4-yl-methanone], which Ki is on record?
A: The Ki was 0.31 nM.

Q: With `CNc1nc(Nc2cc(C)c(C(=O)N3CCOCC3)cc2C)ncc1C(F)(F)F` [Compound 130, [2,5-Dimethyl-4-(4-methylamino-5-trifluoromethyl-pyrimidin-2-ylamino)-phenyl]-morpholin-4-yl-methanone] as the compound, how does the Ki read?
A: The Ki was 4.74 nM.

Same assay, conditions: Table 6 compounds (formula II/III, fused ring)

Q: “[5-Chloro-2-hydroxy-4-(4-methylamino-5-trifluoromethyl-pyrimidin-2-ylamino)-phenyl]-morpholin-4-yl-methanone [Compound 10]” was tested. Which Ki did it give?
A: Its Ki is 3.17 nM.
